Source: PubChem BioAssay AID248 (DTP/NCI, 2004)
Where “and” joins values, the source holds several entries; their conditions need not be identical. Equal entries are not always repeated. Toxic doses and inconclusive results are not listed. Cut-off read from the data, not from the text of the source: active = T/C of 150% or more; inactive = T/C below 125%.

Tested on: L1210 leukemia ip in BDF1 mice, survival T/C
Test: NCI In Vivo Anticancer Drug Screen. Data for tumor model L1210 Leukemia (intraperitoneal) in B6D2F1 (BDF1) mice
Details: endpoint: mean survival time, higher = longer survival
In short: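 Transplantable tumor model; survival measured in treated vs vehicle control mice. Value = treated/control.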

[1] = dose: 100.0 mg/kg/injection, schedule: Q01DX009 (ip), vehicle: saline with Tween-80
[2] = dose: 200.0 mg/kg/injection, schedule: Q01DX009 (ip), vehicle: saline with Tween-80
[3] = dose: 25.0 mg/kg/injection, schedule: Q01DX009 (ip), vehicle: saline
[4] = dose: 50.0 mg/kg/injection, schedule: Q01DX009 (ip), vehicle: saline
[5] = dose: 100.0 mg/kg/injection, schedule: Q01DX009 (ip), vehicle: saline
[6] = dose: 200.0 mg/kg/injection, schedule: Q01DX009 (ip), vehicle: saline
[7] = dose: 100.0 mg/kg/injection, schedule: Q04DX003 (ip), vehicle: saline with Tween-80
[8] = dose: 200.0 mg/kg/injection, schedule: Q04DX003 (ip), vehicle: saline with Tween-80
[9] = dose: 400.0 mg/kg/injection, schedule: Q01DX009 (ip), vehicle: saline with Tween-80
[10] = dose: 400.0 mg/kg/injection, schedule: Q04DX003 (ip), vehicle: saline with Tween-80
[11] = dose: 50.0 mg/kg/injection, schedule: Q01DX001 (ip), vehicle: saline
[12] = dose: 100.0 mg/kg/injection, schedule: Q01DX001 (ip), vehicle: saline
[13] = dose: 200.0 mg/kg/injection, schedule: Q01DX001 (ip), vehicle: saline
[14] = dose: 50.0 mg/kg/injection, schedule: Q04DX003 (ip), vehicle: saline
[15] = dose: 75.0 mg/kg/injection, schedule: Q01DX001 (ip), vehicle: saline
[16] = dose: 100.0 mg/kg/injection, schedule: Q04DX003 (ip), vehicle: saline
[17] = dose: 150.0 mg/kg/injection, schedule: Q01DX001 (ip), vehicle: saline
[18] = dose: 150.0 mg/kg/injection, schedule: Q04DX003 (ip), vehicle: saline
[19] = dose: 100.0 mg/kg/injection, schedule: Q01DX009 (ip), vehicle: Klucel (hydroxypropylcellulose) (HPC)
[20] = dose: 200.0 mg/kg/injection, schedule: Q01DX009 (ip), vehicle: Klucel (hydroxypropylcellulose) (HPC)
[21] = dose: 400.0 mg/kg/injection, schedule: Q01DX009 (ip), vehicle: Klucel (hydroxypropylcellulose) (HPC)
[22] = dose: 25.0 mg/kg/injection, schedule: Q04DX003 (ip), vehicle: saline
[23] = dose: 200.0 mg/kg/injection, schedule: Q04DX003 (ip), vehicle: saline
[24] = dose: 400.0 mg/kg/injection, schedule: Q01DX009 (ip), vehicle: saline
[25] = dose: 400.0 mg/kg/injection, schedule: Q04DX003 (ip), vehicle: saline
[26] = dose: 100.0 mg/kg/injection, schedule: Q04DX003 (ip), vehicle: Klucel (hydroxypropylcellulose) (HPC)
[27] = dose: 200.0 mg/kg/injection, schedule: Q04DX003 (ip), vehicle: Klucel (hydroxypropylcellulose) (HPC)
[28] = dose: 400.0 mg/kg/injection, schedule: Q04DX003 (ip), vehicle: Klucel (hydroxypropylcellulose) (HPC)
[29] = dose: 100.0 mg/kg/injection, schedule: Q01DX001 (ip), vehicle: Klucel (hydroxypropylcellulose) (HPC)
[30] = dose: 200.0 mg/kg/injection, schedule: Q01DX001 (ip), vehicle: Klucel (hydroxypropylcellulose) (HPC)

Measured: T/C

O=C1c2cccc3c(Br)ccc(c23)C(=O)N1C1CCCCCCCCCCC1
inactive: [1] 97 % of control | [2] 90 % of control

Cc1ccc2c(c1)P(O)(=S)c1cc(Cl)ccc1O2 (configuration not stated)
inactive: [3] 102 % of control | [4] 108 % of control | [5] 108 % of control | [6] 108 % of control

O=C(O)C1CCCCC1C(=O)Nc1ccccc1C(F)(F)F (configuration not stated)
inactive: [1] 98 % of control | [7] 105 % of control | [2] 90 % of control | [8] 100 % of control | [9] 94 % of control | [10] 100 % of control

Cc1[nH]c2ccccc2c1C(c1cc(Cl)cc(Cl)c1O)c1c(C)[nH]c2ccccc12
inactive: dose: 100.0 mg/kg/injection, schedule: Q04DX002 (ip), vehicle: saline with Tween-80 87 % of control | dose: 200.0 mg/kg/injection, schedule: Q04DX002 (ip), vehicle: saline with Tween-80 94 % of control | dose: 400.0 mg/kg/injection, schedule: Q04DX002 (ip), vehicle: saline with Tween-80 91 % of control

CCOC(=O)N1C(C(=O)c2ccccc2)N(Cc2ccccc2)C(c2ccccc2)N1C(=O)OCC (configuration not stated)
inactive: [11] 105 % of control | [12] 97 % of control | [13] 105 % of control | dose: 400.0 mg/kg/injection, schedule: Q01DX001 (ip), vehicle: saline 100 % of control

O=C1CCCN1.O=C1CCCN1.[Br][Co][Br]
inactive: dose: 37.5 mg/kg/injection, schedule: Q01DX009 (ip), vehicle: saline 113 % of control | [14] 107 % of control | [15] 103 % of control | dose: 75.0 mg/kg/injection, schedule: Q01DX009 (ip), vehicle: saline 116 % of control | [16] 109 % of control | [17] 102 % of control | dose: 300.0 mg/kg/injection, schedule: Q01DX001 (ip), vehicle: saline 97 % of control

COC(=O)c1ccc2ccccc2n1
inactive: dose: 37.5 mg/kg/injection, schedule: Q04DX003 (ip), vehicle: saline 112 % of control | [15] 112 % of control | dose: 75.0 mg/kg/injection, schedule: Q04DX003 (ip), vehicle: saline 93 % of control | [17] 86 % of control | [18] 93 % of control

CN(C)C(=O)Sc1c(Cl)cc(Cl)cc1S(=O)(=O)F
inactive: [19] 97 % of control | [20] 100 % of control | [21] 97 % of control

O/N=C\c1ccccc1
inactive: dose: 50.0 mg/kg/injection, schedule: Q01DX009 (ip), vehicle: Klucel (hydroxypropylcellulose) (HPC) 92 % of control | [19] 86 % of control

CC#CCOCC1CNC(=O)O1 (configuration not stated)
inactive: [3] 98 % of control | [22] 105 % of control | [4] 93 % of control | [14] 97 % of control | [5] 93 % of control | [16] 97 % of control | [6] 102 % of control | [23] 103 % of control | [24] 104 % of control | [25] 103 % of control

O=C(CCl)c1c(O)[n+](Cc2ccccc2)c2ccccn12
inactive: [22] 100 % of control | [14] 96 % of control | [12] 91 % of control | [16] 91 % of control | [18] 97 % of control | [13] 94 % of control | dose: 225.0 mg/kg/injection, schedule: Q04DX003 (ip), vehicle: saline 103 % of control | dose: 335.0 mg/kg/injection, schedule: Q04DX003 (ip), vehicle: saline 106 % of control

O=[N+]([O-])c1ccc(OCCCCOc2ccccc2)c(Cl)c1
inactive: [26] 95 % of control | [27] 96 % of control | [28] 91 % of control

c1ccc(Nc2ccc(Nc3ccccc3)cc2)cc1
inactive: [29] 94 % of control | [5] 113 % of control | [16] 86 % of control | [30] 94 % of control | [6] 110 % of control | [23] 93 % of control | dose: 400.0 mg/kg/injection, schedule: Q01DX001 (ip), vehicle: Klucel (hydroxypropylcellulose) (HPC) 91 % of control | [24] 110 % of control | [25] 95 % of control

COC(=O)c1ccccc1NC(=O)Nc1ccccc1
inactive: [19] 108 % of control | [26] 101 % of control | [20] 101 % of control | [27] 101 % of control | [21] 100 % of control | [28] 98 % of control

COc1ccc(C2CCc3cc4c(cc3C2=O)OCO4)cc1OC (configuration not stated)
inactive: [1] 98 % of control | [2] 98 % of control | [9] 98 % of control

Cn1ccc(=O)[nH]c1=O
inactive: [26] 96 % of control | [27] 89 % of control | [28] 115 % of control

CCOC(=O)c1[nH]c(=O)nc(N)c1Oc1ccccc1
inactive: dose: 50.0 mg/kg/injection, schedule: Q01DX001 (ip), vehicle: Klucel (hydroxypropylcellulose) (HPC) 98 % of control | [29] 92 % of control | [30] 93 % of control

c1ccc(-c2nnc(-c3ccccn3)nc2-c2ccccc2)cc1
inactive: [7] 95 % of control | [8] 104 % of control | [10] 112 % of control

C(/C=C/C=C/N1CCCCC1)=[N+]1CCCCC1
inactive: dose: 0.39 mg/kg/injection, schedule: Q04DX003 (ip), vehicle: saline 112 % of control | dose: 0.78 mg/kg/injection, schedule: Q04DX003 (ip), vehicle: saline 93 % of control | dose: 1.56 mg/kg/injection, schedule: Q04DX003 (ip), vehicle: saline 105 % of control

CCC1C(=O)OCc2c1cc1n(c2=O)CCC1 (configuration not stated)
inactive: dose: 25.0 mg/kg/injection, schedule: Q01DX001 (ip), vehicle: saline 113 % of control | [11] 104 % of control | [12] 104 % of control | [13] 115 % of control

O=C1CCC2(CC2)C(=O)O1
inactive: [16] 91 % of control | [23] 95 % of control | [25] 91 % of control

N#C/C(=N/O)c1ccccn1
inactive: [19] 96 % of control | [5] 100 % of control | [20] 100 % of control | [6] 107 % of control | [24] 92 % of control

CC(=O)OC(OC(C)=O)c1ccc([N+](=O)[O-])o1
inactive: dose: 12.5 mg/kg/injection, schedule: Q04DX003 (ip), vehicle: Klucel (hydroxypropylcellulose) (HPC) 101 % of control | dose: 25.0 mg/kg/injection, schedule: Q04DX003 (ip), vehicle: Klucel (hydroxypropylcellulose) (HPC) 87 % of control | dose: 50.0 mg/kg/injection, schedule: Q04DX003 (ip), vehicle: Klucel (hydroxypropylcellulose) (HPC) 98 % of control | [26] 96 % of control

O=Cc1[nH]c(=S)[nH]c(=O)c1Cc1cccc2ccccc12
inactive: [1] 97 % of control | [2] 101 % of control

Cc1ccc(C)c(Cn2cnc3c(=S)nc[nH]c32)c1
inactive: dose: 100.0 mg/kg/injection, schedule: Q04DX002 (ip), vehicle: Klucel (hydroxypropylcellulose) (HPC) 94 % of control | dose: 200.0 mg/kg/injection, schedule: Q04DX002 (ip), vehicle: Klucel (hydroxypropylcellulose) (HPC) 94 % of control | dose: 400.0 mg/kg/injection, schedule: Q04DX002 (ip), vehicle: Klucel (hydroxypropylcellulose) (HPC) 88 % of control

CCCCOC(CN)C(Cl)(Cl)Cl (configuration not stated)
inactive: dose: 6.0 mg/kg/injection, schedule: Q04DX002 (ip), vehicle: saline 96 % of control and 97 % of control | dose: 12.0 mg/kg/injection, schedule: Q04DX002 (ip), vehicle: saline 104 % of control and 87 % of control | dose: 12.5 mg/kg/injection, schedule: Q01DX009 (ip), vehicle: saline 97 % of control and 98 % of control | [6] 96 % of control and 101 % of control | dose: 200.0 mg/kg/injection, schedule: Q04DX002 (ip), vehicle: saline 97 % of control

OCC1=C(CO)C2(Cl)C(Cl)=C(Cl)C1(Cl)C2(Cl)Cl
inactive: [19] 100 % of control | [16] 105 % of control | [20] 105 % of control | [23] 100 % of control | [21] 88 % of control | [25] 98 % of control

COB(C1CCCCC1)C1CCCCC1
inactive: [26] 91 % of control | [27] 98 % of control | [28] 100 % of control
